# “Also recorded” adds a separate entry of the source.
# Experiments:
# [1] = system: G6PD; assay: G6PD activity in BAEC; format: cell-based, bovine; conditions: for G6PD activity: VEGF 100 ng/ml
# Description: (§1) To investigate the role of G6PD in vascular endothelial cell proliferation, we initially sought to determine if growth factors involved in angiogenesis, such as vascular endothelial growth factor (VEGF), influenced G6PD activity.
# (§2) To examine further the role of G6PD in VEGF-mediated cell proliferation, we next inhibited G6PD activity by exposing BAEC to dehydroepiandrosterone (DHEA) ([…]), a noncompetitive inhibitor of G6PD, for 24 hr.
# (§3) As a control, we used a phosphorothioate oligodeoxynucleotide with a scrambled sequence (SS).
# (§4) We have recently constructed an adenoviral vector incorporating murine G6PD cDNA (93% homologous to the rat cDNA).
# [2] = system: bovine aortic endothelial cells (BAEC); assay: Cellular NADPH levels in BAEC; format: cell-based; conditions: for cellular NADPH levels: VEGF 100 ng/ml
# Description: as §1, §4
# [3] = system: bovine aortic endothelial cells (BAEC); assay: Endothelial cell proliferation by [3H]-thymidine incorporation; format: cell-based
# Protocol: FIGS. 1A and 1B show G6PD and endothelial cell proliferation. BAEC were treated with DHEA to decrease G6PD activity and stimulated with VEGF (100 ng/ml) for 8 hr (1A). Cell proliferation is measured by [^3H]-Thymidine incorporation. G6PD expression was inhibited by trans(in)fection with an antisense oligonucleotide to G6PD mRNA (AS) or a scrambled control (SS) and proliferation was determined by [^3H]-Thymidine incorporation (1B). Results are expressed as counts per minute (cpm) and data presented as mean±SEM. *p<0.01 vs.−VEGF.**p<0.01 vs.−DHEA or −SS.
# as §2, §3, §4
# [4] = system: bovine aortic endothelial cells (BAEC); assay: Cell death by lactate dehydrogenase activity measured in the media; format: cell-based; conditions: DHEA-treated BAEC
# Description: as §2
# [5] = system: bovine aortic endothelial cells (BAEC); assay: Cell migration in modified Boyden chamber; format: cell-based; conditions: for cell migration (fluorescence), result in words: BAEC; for cell migration: VEGF-stimulated BAEC (100 ng/ml, 18 hr) with eNOS inhibitor (L-NAME 1 mmol/L, L-NMMA 100 μmol/L)
# Protocol: Fluorescently labeled, BAEC were stimulated with VEGF (100ng/ml) for 18 hr and cell migration was assessed in a modified Boyden Chamber.
# BAEC were fluorescently labeled with calcein AM (Molecular Probes, Inc.) and 0.4×10^3 cells were loaded to the top of a pre-fitted membrane filter that fit a specially designed 96-well microplate. The microplate wells were loaded with serum-free media and VEGF (100 ng/ml) for 18 hr., and cells were allowed to migrate across the membrane. The plate was then analyzed using a fluorescent microplate reader.
# [6] = system: bovine aortic endothelial cells (BAEC); assay: Cell-wounding migration assay; format: cell-based; conditions: VEGF 100 ng/ml, serum-free media, 18 hr
# Protocol: FIGS. 3A-D show G6PD and endothelial cell migration.
# We next examined the role of G6PD on VEGF-stimulated endothelial cell migration. In a cell-wounding migration assay, BAEC were grown to confluence on a P100 culture dish. Using a sterile scalpel, a vertical incision was made in the midline of the dish, and under microscopic guidance, BAEC were removed from one-half of the plate. BAEC were then incubated with VEGF (100 ng/ml) in serum-free media, and cell migration across the midline was observed after 18 hr and quantified by the average cell count in 5 high powered fields.
# [7] = system: G6PD; assay: G6PD expression by Western analysis in BAEC; format: cell-based, bovine
# Description: as §1, §3, §4
# [8] = system: bovine aortic endothelial cells (BAEC); assay: Endothelial cell tube formation on Matrigel; format: cell-based; conditions: VEGF 100 ng/ml for 12 hr
# Protocol: FIGS. 5A and B show G6PD and Tube Formation. BAEC were transfected with an antisense oligodecocynucleotide to G6PD and mRNA (AS) or a scrambled control (SS) and plated on Matrigel. Cells were then stimulated with VEGF and tube formation was assessed visually (5A) and quantified using area analysis with background substration (5B). Results of area analysis are the average of 10 high-powered fields.
# FIGS. 6A and B show G6PD overexpression and tube formation. G6PD expression was increased via adenoviral-mediated gene transfer. BAEC were then placed on Matrigel and stimulated with VEGF ([…]).
# To examine the role of G6PD in endothelial cell tube formation in vitro, we plated BAEC on Matrigel and stimulated cells with VEGF (100ng/ml) for 12 hr. Results were quantified using NIH Image to determine area of tube formation. Under basal conditions, BAEC plated on Matrigel formed tubes and networks that were increased following exposure to VEGF.
# In order to confirm that G6PD importantly modulates tube formation in vitro, we next increased G6PD expression via adenoviral-mediated gene transfer and examined tube formation.
# [9] = system: C3H wild-type (WT) and hemizygous male (HEMI) mice; assay: In vivo Matrigel plug migration assay; set-up: species or system mouse
# Protocol: To examine the effect of G6PD activity on angiogenesis in vivo, we performed an in vivo Matrigel migration assay in C3H wild-type (WT) and hemizygous male (HEMI) mice. Matrigel, derived from mouse basement membrane proteins, was implanted subcutaneously in the groin area to form a Matrigel “plug”. Each mouse was injected on one side with either Matrigel alone, or Matrigel supplemented with VEGF (100 ng/ml). In this manner, each animal could serve as its own control. Plugs were left in place for 14 days. Following this time, the animals were euthanized, plugs excised with surrounding tissue for orientation, and embedded and sectioned in paraffin. Sections were then stained with Hematoxylin & Eosin (H&E). Images were captured digitally and assessed for cell counts. For orientation purposes, a representative Matrigel plug from a WT mouse at 4× (right) and 20× (left) magnification is shown below (FIG. 9).
# These findings were quantified by counting cells in 10 randomly selected high-power (20×) fields per image in 3 successive images. […] These findings confirm that G6PD modulates angiogenesis in vivo.
# We next wanted to determine if we could “rescue” the G6PD-deficient phenotype using gene transfer to increase local G6PD expression. We treated Matrigel with an adenoviral vector encoding for G6PD implanted plugs in HEMI mice for 7 days in the presence or absence of VEGF (FIG. 13).
# [10] = DHEA-treated or AS transfection for 5 hours
compound,measurement,setting,value
"C[C@]12CC[C@H](O)CC1=CC[C@@H]1[C@@H]2CC[C@]2(C)C(=O)CC[C@@H]12 [DHEA, dehydroepiandrosterone]",reduction in G6PD activity,[1]; [10],60%
same,decrease in the level of cellular NADPH,[2]; [10],30%
same,[3H]-thymidine incorporation,[3]; basal conditions (DHEA 100 pmol/L for 24 hr; AS or SS transfected),"9,967±1,531 cpm"
same,[3H]-thymidine incorporation,[3]; following stimulation with VEGF 100 ng/ml for 8 hr,"8,902±1,451 cpm"
same,cell death by lactate dehydrogenase activity in the media,[4],not the result of increased cell death
same,"cell migration (fluorescence), result in words","[5]; VEGF 100 ng/ml, 18 hr",abrogated; also recorded: VEGF did not significantly increase migration
same,"cell migration across the midline, average cell count",[6],10±2 cells/hpf
CNC(=N)NCCC[C@H](N)C(=O)O [L-NMMA],cell migration,[5],21.6±7.3 units
VEGF,G6PD activity,[1]; 24 hr,87±19 units/6 min/mg protein
same,G6PD activity,[1]; after 4 hr,182.7±37 units/6 min/mg protein
same,cellular NADPH levels,[2]; 4 hr,0.5±0.04 mmoles/mg protein
same,cellular NADPH levels,[2]; 24 hr,0.4±0.08 mmoles/mg protein
same,G6PD expression,[7],did not increase G6PD expression
same,tube formation / vessel area,[8],increased
same,cell migration as fluorescence,"[5]; BAEC with normal G6PD activity, VEGF 100 ng/ml, 18 hr",55.3±6.6 units
same,"cell migration (fluorescence), result in words","[5]; VEGF 100 ng/ml, 18 hr",significant increase in fluorescence
same,"cell migration across the midline, average cell count",[6],28±6 cells/hpf
same,cell migration into the Matrigel plug,"[9]; HEMI mice, 7 days",not increased significantly
same,cell migration into the Matrigel plug,"[9]; HEMI mice, 14 days, Matrigel with VEGF 100 ng/ml",did not significantly improve this response
same,cell migration into the Matrigel plug,"[9]; WT mice, 14 days, Matrigel with VEGF 100 ng/ml",increased the number of cells migrating into the Matrigel plug
COC(=O)[C@@H](N)CCCNC(=N)N[N+](=O)[O-] [L-NAME],cell migration,[5],23.6±17 units

# From patent publication US20050032687A1, “Method and composition for the modulation of angiogenesis” (priority 2001, published 2005)
